Columns and labels:
Type in all cases: in vivo
[1] = tested on: bedstraw (Galium aparine); test: Test B pre-/postemergence; design: key: 0 is no effect; 10 is complete control; conditions: Postemergence
Method in brief: (§1)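 Response scores run from 0, meaning no effect, to 10, meaning complete control, assigned by eye relative to controls twelve to sixteen days after spraying. Treatment was both preemergence on planted seed and postemergence on plants at the 1- to 4-leaf stage.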

[2] = tested on: blackgrass (Alopecurus myosuroides); test: Test B pre-/postemergence; design: key: 0 is no effect; 10 is complete control; conditions: for Blackgrass plant response rating: Preemergence
Method in brief: as §1

[3] = tested on: broadleaf signalgrass (Brachiaria decumbens); test: Test B pre-/postemergence; design: key: 0 is no effect; 10 is complete control; conditions: for B. signalgrass plant response rating: Preemergence
Method in brief: as §1

[4] = tested on: cocklebur (Xanthium strumarium); test: Test B pre-/postemergence; design: key: 0 is no effect; 10 is complete control; conditions: for Cocklebur plant response rating: Preemergence
Method in brief: as §1

corn (Zea mays) = test: Test B pre-/postemergence; design: key: 0 is no effect; 10 is complete control; conditions: for Corn plant response rating: Preemergence
Method in brief: as §1

[5] = tested on: crabgrass (Digitaria sanguinalis); test: Test B pre-/postemergence; design: key: 0 is no effect; 10 is complete control; conditions: for Crabgrass plant response rating: Preemergence
Method in brief: as §1

[6] = tested on: giant foxtail (Setaria faberii); test: Test B pre-/postemergence; design: key: 0 is no effect; 10 is complete control
Method in brief: as §1

[7] = tested on: momingglory (Ipomoea hederacea); test: Test B pre-/postemergence; design: key: 0 is no effect; 10 is complete control
Method in brief: as §1

[8] = tested on: pigweed (Amaranthus retroflexus); test: Test B pre-/postemergence; design: key: 0 is no effect; 10 is complete control
Method in brief: as §1

[9] = tested on: purple nutsedge (Cyperus rotundus); test: Test B pre-/postemergence; design: key: 0 is no effect; 10 is complete control
Method in brief: as §1

rape (Brassica napus) = test: Test B pre-/postemergence; design: key: 0 is no effect; 10 is complete control
Method in brief: as §1

soybean (Glycine max) = test: Test B pre-/postemergence; design: key: 0 is no effect; 10 is complete control
Method in brief: as §1

[10] = tested on: sugar beet (Beta vulgaris); test: Test B pre-/postemergence; design: key: 0 is no effect; 10 is complete control
Method in brief: as §1

[11] = tested on: velvetleaf (Abutilon theophrasti); test: Test B pre-/postemergence; design: key: 0 is no effect; 10 is complete control
Method in brief: as §1

[12] = tested on: wheat (Triticum aestivum); test: Test B pre-/postemergence; design: key: 0 is no effect; 10 is complete control
Method in brief: as §1

wild oat (Avena fatua) = test: Test B pre-/postemergence; design: key: 0 is no effect; 10 is complete control
Method in brief: as §1

[13] = tested on: bamyardgrass (Echinochloa crus-galli); test: Test B flood test
Method in brief: (§2)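 Each value is a visual injury score relative to controls, with 10 meaning complete control and 0 no effect. Evaluation took place twelve to sixteen days after the 2-leaf-stage plants were treated and kept in the greenhouse.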

[14] = tested on: duck salad (Heteranthera limosa); test: Test B flood test
Method in brief: as §2

rice (Oryza sativa) = test: Test B flood test
Method in brief: as §2

[15] = tested on: smallflower flatsedge (Cyperus difformis); test: Test B flood test
Method in brief: as §2

[16] = Rate 250 g/ha, Postemergence (so in the source)
[17] = Rate 62 g/ha, Postemergence (flood test)
[18] = Rate 125 g/ha, Postemergence, flood test
[19] = Rate 250 g/ha, Postemergence (flood test species)
[20] = Rate 125 g/ha, Postemergence section (flood test species)

## Cc1cnc(-c2ccc(F)c(Cl)c2)nc1Cc1cccc(C#N)c1 [Compound 40]
[1]; Rate 62 g/ha
  Plant response rating, Bedstraw: 4
[1]; Rate 125 g/ha
  Plant response rating, Bedstraw: 4
[1]; Rate 250 g/ha
  Plant response rating, Bedstraw: 6
[2]; Rate 62 g/ha, Postemergence
  Plant response rating, Blackgrass: 2
[2]; Rate 62 g/ha
  Blackgrass plant response rating: 0
[2]; Rate 125 g/ha, Postemergence
  Plant response rating, Blackgrass: 2
[2]; Rate 125 g/ha
  Blackgrass plant response rating: 1
[2]; Rate 250 g/ha, Postemergence
  Plant response rating, Blackgrass: 2
[2]; [16]
  Plant response rating, Blackgrass: 2
[3]; Rate 62 g/ha, Postemergence
  Plant response rating, B. signalgrass: 1
[3]; Rate 62 g/ha
  B. signalgrass plant response rating: 0
[3]; Rate 125 g/ha, Postemergence
  Plant response rating, B. signalgrass: 1
[3]; Rate 125 g/ha
  B. signalgrass plant response rating: 0
[3]; Rate 250 g/ha, Postemergence
  Plant response rating, B. signalgrass: 1
[3]; Rate 250 g/ha, Postemergence as printed in head r139 (second section for compounds 26-50)
  Plant response rating, B. signalgrass: 1
[4]; Rate 62 g/ha, Postemergence
  Plant response rating, Cocklebur: 5
[4]; Rate 62 g/ha
  Cocklebur plant response rating: 0
[4]; Rate 125 g/ha, Postemergence
  Plant response rating, Cocklebur: 2
[4]; Rate 125 g/ha
  Cocklebur plant response rating: 0
[4]; Rate 250 g/ha, Postemergence
  Plant response rating, Cocklebur: 5
[4]; [16]
  Plant response rating, Cocklebur: 0
Corn (Zea mays); Rate 62 g/ha, Postemergence
  Plant response rating, Corn: 1
Corn (Zea mays); Rate 62 g/ha
  Corn plant response rating: 0
Corn (Zea mays); Rate 125 g/ha, Postemergence
  Plant response rating, Corn: 1
Corn (Zea mays); Rate 125 g/ha
  Corn plant response rating: 0
Corn (Zea mays); Rate 250 g/ha, Postemergence
  Plant response rating, Corn: 1
Corn (Zea mays); [16]
  Plant response rating, Corn: 0
[5]; Rate 62 g/ha, Postemergence
  Plant response rating, Crabgrass: 1
[5]; Rate 62 g/ha
  Crabgrass plant response rating: 0
[5]; Rate 125 g/ha, Postemergence
  Plant response rating, Crabgrass: 1
[5]; Rate 125 g/ha
  Crabgrass plant response rating: 0
[5]; Rate 250 g/ha, Postemergence
  Plant response rating, Crabgrass: 3
[5]; [16]
  Plant response rating, Crabgrass: 0
[6]; Rate 62 g/ha, Postemergence
  Plant response rating, Giant foxtail: 0
[6]; Rate 62 g/ha, Preemergence
  Giant foxtail plant response rating: 0
[6]; Rate 125 g/ha, Postemergence
  Giant foxtail plant response rating: 0
[6]; Rate 125 g/ha, Preemergence
  Giant foxtail plant response rating: 1
[6]; Rate 250 g/ha, Postemergence
  Plant response rating, Giant foxtail: 2
[6]; [16]
  Plant response rating, Giant foxtail: 3
[7]; Rate 62 g/ha, Postemergence
  Plant response rating, Morningglory: 2
[7]; Rate 62 g/ha, Preemergence
  Morningglory plant response rating: 0
[7]; Rate 125 g/ha, Postemergence
  Morningglory plant response rating: 2
[7]; Rate 125 g/ha, Preemergence
  Morningglory plant response rating: 1
[7]; Rate 250 g/ha, Postemergence
  Plant response rating, Morningglory: 5
[7]; [16]
  Plant response rating, Morningglory: 2
[8]; Rate 62 g/ha, Postemergence
  Plant response rating, Redroot pigweed: 2
[8]; Rate 62 g/ha, Preemergence
  Redroot pigweed plant response rating: 0
[8]; Rate 125 g/ha, Postemergence
  Redroot pigweed plant response rating: 3
[8]; Rate 125 g/ha, Preemergence
  Redroot pigweed plant response rating: 1
[8]; Rate 250 g/ha, Postemergence
  Plant response rating, Redroot pigweed: 6
[8]; [16]
  Plant response rating, Redroot pigweed: 2
[9]; Rate 62 g/ha, Preemergence
  Nutsedge plant response rating: 0
[9]; [16]
  Plant response rating, Nutsedge: 0
Rape (Brassica napus); Rate 62 g/ha, Postemergence
  Plant response rating, Rape: 6
Rape (Brassica napus); Rate 62 g/ha, Preemergence
  Rape plant response rating: 0
Rape (Brassica napus); Rate 125 g/ha, Postemergence
  Rape plant response rating: 6
Rape (Brassica napus); Rate 125 g/ha, Preemergence
  Rape plant response rating: 1
Rape (Brassica napus); Rate 250 g/ha, Postemergence
  Plant response rating, Rape: 8
Rape (Brassica napus); [16]
  Plant response rating, Rape: 2
Soybean (Glycine max); Rate 62 g/ha, Postemergence
  Plant response rating, Soybean: 2
Soybean (Glycine max); Rate 62 g/ha, Preemergence
  Soybean plant response rating: 0
Soybean (Glycine max); Rate 125 g/ha, Postemergence
  Soybean plant response rating: 2
Soybean (Glycine max); Rate 125 g/ha, Preemergence
  Plant response rating, Soybean: 0
Soybean (Glycine max); Rate 250 g/ha, Postemergence
  Plant response rating, Soybean: 2
Soybean (Glycine max); [16]
  Plant response rating, Soybean: 0
[10]; Rate 62 g/ha, Postemergence
  Plant response rating, Sugarbeets: 10
[10]; Rate 62 g/ha, Preemergence
  Sugarbeets plant response rating: 2
[10]; Rate 125 g/ha, Postemergence
  Sugarbeets plant response rating: 10
[10]; Rate 125 g/ha, Preemergence
  Plant response rating, Sugarbeets: 6
[10]; Rate 250 g/ha, Postemergence
  Plant response rating, Sugarbeets: 10
[10]; [16]
  Plant response rating, Sugarbeets: 6
[11]; Rate 62 g/ha, Postemergence
  Plant response rating, Velvetleaf: 1
[11]; Rate 62 g/ha, Preemergence
  Velvetleaf plant response rating: 0
[11]; Rate 125 g/ha, Postemergence
  Velvetleaf plant response rating: 2
[11]; Rate 125 g/ha, Preemergence
  Plant response rating, Velvetleaf: 0
[11]; Rate 250 g/ha, Postemergence
  Plant response rating, Velvetleaf: 2
[11]; [16]
  Plant response rating, Velvetleaf: 1
[12]; Rate 62 g/ha, Postemergence
  Wheat plant response rating: 1
[12]; Rate 62 g/ha, Preemergence
  Wheat plant response rating: 0
[12]; Rate 125 g/ha, Postemergence
  Wheat plant response rating: 1
[12]; Rate 125 g/ha, Preemergence
  Plant response rating, Wheat: 0
[12]; Rate 250 g/ha, Postemergence
  Plant response rating, Wheat: 2
[12]; [16]
  Plant response rating, Wheat: 0
Wild oat (Avena fatua); Rate 62 g/ha, Postemergence
  Wild oats plant response rating: 0
Wild oat (Avena fatua); Rate 62 g/ha, Preemergence
  Wild oats plant response rating: 0
Wild oat (Avena fatua); Rate 125 g/ha, Postemergence
  Wild oats plant response rating: 0
Wild oat (Avena fatua); Rate 125 g/ha, Preemergence
  Plant response rating, Wild oats: 0
Wild oat (Avena fatua); Rate 250 g/ha, Postemergence
  Plant response rating, Wild oats: 1
Wild oat (Avena fatua); [16]
  Plant response rating, Wild oats: 1
[13]; [17]
  Plant response rating, Barnyardgrass: 2
[13]; [18]
  Plant response rating, Barnyardgrass: 2
[13]; [19]
  Plant response rating, Barnyardgrass: 2
[14]; [17]
  Plant response rating, Ducksalad: 1
[14]; [18]
  Plant response rating, Ducksalad: 5
[14]; [19]
  Plant response rating, Ducksalad: 7
Rice (Oryza sativa); [17]
  Plant response rating, Rice: 1
Rice (Oryza sativa); [20]
  Rice plant response rating: 1
Rice (Oryza sativa); [19]
  Plant response rating, Rice: 2
[15]; [17]
  Plant response rating, S. Flatsedge: 2
[15]; [20]
  S. Flatsedge plant response rating: 4
[15]; [19]
  Plant response rating, S. Flatsedge: 5

Reference: patent US6525001B1, “Substituted pyrimidine and pyridine herbicides” (Mid-American Commercialization Corporation, priority 1997, dated 2003)
